Results as given in ChEMBL document CHEMBL1201862, “PubChem BioAssay data set” (2004).
The source made the active and inactive calls. For most assays here, no stated cut-off is given here; in the data, actives have a measured EC50 and inactives only a lower limit.

Tests used:
[1] = P. falciparum Dd2 growth inhibitors, dose response, SYBR Green, cherry-picked samples (AID 1159567); format: functional, cell-based
[2] = luciferase reporter signal suppression in cells – H4 neuroglioma cells, luminescence, dose response (AID 1990); format: functional, cell-based
[3] = Luminescence Cell-Based Dose Response HTS to Identify Inhibitors of 5'UTR Stem-Loop Driven Prion Protein mRNA Translation in H4 Neuroglioblastoma Cells. [Related pubchem assays: 1827 (Project Summary), 1813 (Primary HTS)]; format: functional
[4] = alpha-synuclein stem-loop luciferase translation blockers – H4 neuroglioma cells, luminescence, confirmation (AID 1988); format: functional, cell-based
[5] = NIH-3T3 fibroblast cytotoxicity, dose response, cytotoxicity control, cell-based, fluorescence, Alamar Blue, secondary assay (AID 2327); format: functional;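 further: NIH-3T3 mouse fibroblasts cultured with fluconazole at 8 µg/mL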
[6] = fluconazole-exposed Candida albicans growth modulators – fluorescence, retest, confirmation (AID 2467); format: functional, cell-based
cells = format: functional
[7] = viability of HCT116 lacking mutant beta-catenin – cell-based, human colon tumor, dose response (AID 1045); format: functional;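 further: HCT116 colon tumor cells with beta catenin knocked out; cells exposed to compound for 60 hours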
[8] = Trypanosoma cruzi growth suppression in host cells – NIH3T3 host cells, beta-gal luminescence, confirmation (AID 2044); format: functional, cell-based;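 further: intracellular parasites grown in NIH/3T3 mouse fibroblasts as host cells; luminescent beta-galactosidase reporter signal from transgenic T. cruzi replicating inside host cells; inhibitors lower the luminescence signal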
[9] = viability of PTEN-deleted HCT116 cells – cell-based, HCT116 PTEN knockout, dose response (AID 1047); format: functional;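 further: HCT116 colon tumor cells with PTEN knocked out; cells exposed to compound for 60 hours before readout; potency for loss of cell viability measured by luminescence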
[10] = NIH3T3 cell viability loss – ATP luminescence, mouse fibroblasts, counter-screen, dose response (AID 2010); format: functional, cell-based;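 further: cells exposed to compound for about 90 hours before reading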

SMILES: COc1ccc(-c2ccc([C@@H]3[C@@H](CO)N4CCCCN(C(=O)c5ccc6c(c5)OCO6)C[C@@H]34)cc2)cc1
- AC50 [1]: 5.97 µM (active)

SMILES: CCc1cc(=O)oc2cc(OC(C)C(=O)NCC(O)c3ccccc3)c(Cl)cc12 (stereo not drawn)
- EC50 [2]: > 120 µM (not active)
- EC50 [3]: > 120 µM (not active)
- EC50 [4]: > 120 µM (not active)

SMILES: COc1ccc(-c2[nH]nc(C)c2-c2cnn(-c3ccccc3)c2)c(O)c1
- EC50 [5]: > 160 µM (inactive)
- EC50 [6]: 3.77 µM (active)

SMILES: CCC(=O)c1ccc(OCC(=O)OCC(=O)N2CCc3ccccc3C2)cc1
- IC50 (cells): 17.3 µM (active)

SMILES: COc1ccc(NC(=O)N(C)C[C@@H]2Oc3cc(-c4ccc(C)cc4)ccc3S(=O)(=O)N([C@@H](C)CO)C[C@H]2C)cc1
- AC50 [1]: 5.06 µM (active)

SMILES: Cc1cc(C)n2nc(S(=O)(=O)Nc3c(Cl)cccc3Cl)nc2n1
- IC50 (cells): 5.34 µM (active)

SMILES: Fc1ccc(-c2cc3nc(-c4ccccc4)cc(N4CCN(CCN5CCOCC5)CC4)n3n2)cc1
- EC50 [7]: 85 µM (active)
- EC50 [8]: 4.9 µM (active)
- EC50 [9]: 71.2 µM (active)
- EC50 [10]: 7.58 µM (active)

SMILES: CCOc1nc(NCCc2ccc(OC)c(OC)c2)nc(N2CCN(c3ccc(OC)cc3)CC2)n1
- EC50 [7]: 10.5 µM (active)
- EC50 [9]: 6.42 µM (active)

SMILES: CO[C@@H]1CN(C)C(=O)c2cc(NC(=O)c3ccc(Oc4ccccc4)cc3)ccc2OC[C@H](C)NC[C@@H]1C
- AC50 [1]: 5.99 µM (active)

SMILES: COc1cccc(NC(=O)c2ccc3nc(C)sc3c2)c1
- EC50 [5]: > 160 µM (inconclusive)
- EC50 [6]: 1.53 µM (active)

SMILES: CSc1ccccc1NC(=O)c1ccc(N2CC3CC(C2)c2cccc(=O)n2C3)c(NC(=O)c2cccnc2)c1 (stereo not drawn)
- EC50 [2]: > 120 µM (not active)
- EC50 [3]: > 120 µM (not active)
- EC50 [4]: > 120 µM (not active)

SMILES: O=C1c2ccccc2C(=O)N1CCCCN(C(=O)c1cc2ccccc2oc1=O)c1ccc(F)cc1F
- EC50 [2]: > 120 µM (not active)
- EC50 [3]: > 120 µM (not active)
- EC50 [4]: > 120 µM (not active)

SMILES: CO[C@H]1CN(C)C(=O)c2cc(NC(=O)c3ccccc3F)ccc2OC[C@H](C)N(C)C[C@H]1C
- AC50 [1]: > 39 µM (inactive)

SMILES: COc1cc(C(=O)O/N=C2/C=CC(=O)C(C)=C2C)cc(OC)c1OC
- EC50 [7]: 19 µM (active)
- EC50 [9]: 18.3 µM (active)

SMILES: CSCCC1NC2(C(=O)Nc3c(C)cc(Cl)cc32)[C@@H]2C(=O)N(C3CCCC3)C(=O)[C@H]12 (stereo partly drawn)
- EC50 [5]: > 150 µM (inactive)
- EC50 [6]: > 38 µM (not active)

SMILES: COc1ccc2c3c(n(C)c2c1)[C@@H](CO)N(C(=O)Nc1ccc(F)cc1)CC31CN(C(=O)c2ccccc2F)C1
- AC50 [1]: 4.35 µM (active)

SMILES: c1ccc2c(c1)CSc1ccccc1N2
- EC50 [2]: > 120 µM (not active)
- EC50 [3]: > 120 µM (not active)
- EC50 [4]: > 120 µM (not active)
